Type in all cases: cell-based
Test [1] has as its system human mammary cancer-derived KPL-4 cells. Put plainly: Cell growth inhibition test with KPL-4 cells (WST-1). To be noted: KPL4, 72 hours, read-out: 50% growth inhibition concentration (GI50). The method in brief:
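Growth inhibition from WST-1 absorbance difference (450 minus 655 nm) after 1 h, relative to untreated control as 100%, giving GI50. KPL-4 cells had 24 h pre-culture in DMEM/10% FCS before 72 h compound exposure at 37 °C under 5% CO2.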
(Formazan colour is commonly taken as a measure of viable cells.)

The test system of test [2] is human chronic myelocytic leukemia-derived K562 cells. Put plainly: Cell growth inhibition test with K562 cells (WST-1). To be noted: 72 hours, read-out: 50% growth inhibition concentration (GI50). The method, boiled down: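 K562 cells at 1500 cells/well in 10% FCS RPMI 1640, pre-incubated 5 h, then exposed to serially diluted compound for 72 h at 37° C, 5% CO2. Viability read by WST-1 after 2 h (absorbance 450/655 nm); GI50 reported.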

The test system of test [3] is human multiple myeloma-derived KMS-11 cells. The experiment in a line: Cell growth inhibition test with KMS-11 cells (WST-1). The settings on record: 72 hours, read-out: 50% growth inhibition concentration (GI50). On the procedure:
In a 96-well plate (Nunc), human multiple myeloma-derived KMS-11 cells were sown in an amount of 4000 cells/well, and pre-incubated in 10% FCS-containing RPMI 1640 (Nissui) (incubation medium) in a 5% carbon dioxide incubator at 37° C. for 24 hours. Next, a DMSO solution of a test compound controlled at 10 mmol/L was stepwise diluted with the incubation medium, and added to each well in a total amount of 100 μL/well, and further incubated in the 5% carbon dioxide incubator at 37° C. for 72 hours. After the incubation, WST-1-labeled mixture (Rosh Diagnostic) diluted 2-fold with the incubation medium was added thereto in an amount of 20 μL/well, and incubated in the 5% carbon dioxide incubator at 37° C. for 2 hours. Using a microplate spectrophotometer (Biorad's Model 550), the absorbance at 450 nm and 655 nm of each well was measured. The cell growth inhibition activity of the test compound was indicated by the 50% growth inhibition concentration (GI50) thereof, like in Test Example 2.

`CCc1c(O)cc(O)c(-c2ccccc2)c1CCO` [Compound 84, 6-Ethyl-5-(2-hydroxyethyl)-4-phenylbenzene-1,3-diol]: the GI50 in test [1], in test [2] and in test [3] was ≤ 50 µM throughout.
On to `CCc1c(O)cc(O)c(-c2ccccc2)c1CCc1ocnc1CO` [Compound 210, 6-Ethyl-5-[2-(4-hydroxymethyl-1,3-oxazol-5-yl)ethyl]-4-phenylbenzene-1,3-diol], for which the GI50 in test [2] and in test [3] was ≤ 50 µM in each case.
In the case of `COCCOCCc1c(C(C)=O)c(O)cc(O)c1-c1cccc(C)c1` [Compound 139, 1-{2,4-dihydroxy-6-[2-(2-methoxyethoxy)ethyl]-5-(3-methylphenyl)phenyl}ethanone], the GI50 in test [1], in test [2] and in test [3] was ≤ 50 µM in each case.
As for `COC(=O)Cc1c(Br)c(O)cc(O)c1-c1ccco1` [Compound 238, Methyl 2-bromo-6-(furan-2-yl)-3,5-dihydroxyphenylacetate], the GI50 in test [1], in test [2] and in test [3] was ≤ 50 µM throughout.
`CCc1c(O)cc(O)c(-c2ccccc2)c1Cc1nn(CCOC)c(=O)o1` [Compound 317, 5-[(2-Ethyl-3,5-dihydroxy-6-phenylphenyl)methyl]-3-(2-methoxyethyl)-3H-1,3,4-oxadiazol-2-one]: the GI50 in test [2] and in test [3] was ≤ 50 µM throughout.
For `COCCc1c(C(C)=O)c(O)cc(O)c1-c1cccc(O)c1` [Compound 134, 1-[2,4-Dihydroxy-5-(3-hydroxyphenyl)-6-(2-methoxyethyl)phenyl]ethanone], the GI50 in test [1], in test [2] and in test [3] was ≤ 50 µM throughout.
Take `CCc1c(O)cc(O)c(-c2ccco2)c1CCOCCO` [Compound 256, 6-Ethyl-4-(furan-2-yl)-5-[2-(2-hydroxyethoxy)ethyl]benzene-1,3-diol]: the GI50 in test [2] and in test [3] was ≤ 50 µM in each case.
Take `CCc1c(O)cc(O)c(-c2cccc(O)c2)c1CCOCCOC` [Compound 166, 6-Ethyl-4-(3-hydroxyphenyl)-5-[2-(2-methoxyethoxy)ethyl]benzene-1,3-diol]: the GI50 in test [1], in test [2] and in test [3] was ≤ 50 µM throughout.
`CCc1c(O)cc(O)c(-c2ccc(F)c(C)c2)c1CC1O[C@@H](CO)[C@H](CO)O1` [Compound 300, 5-{[(4S,5S)-4,5-Bis(hydroxymethyl)-1,3-dioxolan-2-yl]methyl}-6-ethyl-4-(4-fluoro-3-methylphenyl)benzene-1,3-diol]: the GI50 in test [2] and in test [3] was ≤ 50 µM throughout.
Take `COCCc1c(C(C)=O)c(O)cc(O)c1-c1cccc(OC)c1` [Compound 116, 1-[2,4-Dihydroxy-6-(2-methoxyethyl)-5-(3-methoxyphenyl)phenyl]ethanone]: the GI50 in test [1], in test [2] and in test [3] was ≤ 50 µM throughout.
Consider `CCc1c(O)cc(O)c(-c2ccccc2)c1CCOCC(O)CO` (stereo not shown) [Compound 147, 5-[2-(2,3-Dihydroxypropoxy)ethyl]-6-ethyl-4-phenylbenzene-1,3-diol], for which the GI50 in test [1], in test [2] and in test [3] was ≤ 50 µM in each case.
As to `CCc1c(O)cc(O)c(-c2cccs2)c1CCOCCO` [Compound 275, 6-Ethyl-5-[2-(2-hydroxyethoxy)ethyl]-4-(2-thienyl)benzene-1,3-diol], the GI50 in test [2] and in test [3] was ≤ 50 µM in each case.
As to `CCc1c(O)cc(O)c(-c2ccccc2)c1CC(=O)OC` [Compound 52, Methyl 2-ethyl-3,5-dihydroxy-6-phenylphenylacetate], the GI50 in test [1] and in test [3] was ≤ 50 µM in each case.
As for `CCc1c(O)cc(O)c(-c2ccccc2)c1CCCOCC(=O)NC` [Compound 159, 2-[3-(2-Ethyl-3,5-dihydroxy-6-phenylphenyl)propoxy]-N-methylacetamide], the GI50 in test [1], in test [2] and in test [3] was ≤ 50 µM each time.
For the compound `CCc1cc(-c2n[nH]c3cc(OC)ccc23)c(O)cc1O` [Compound 276, 6-Ethyl-4-(6-methoxy-1H-indazol-3-yl)benzene-1,3-diol], the GI50 in test [1] and in test [3] was ≤ 50 µM each time.
As to `CCc1c(O)cc(O)c(-c2cccc(O)c2)c1CCOCCO` [Compound 174, 6-Ethyl-5-[2-(2-hydroxyethoxy)ethyl]-4-(3-hydroxyphenyl)benzene-1,3-diol], the GI50 in test [1], in test [2] and in test [3] was ≤ 50 µM each time.
Regarding `COCCc1c(C(C)=O)c(O)cc(O)c1-c1cccc(C)c1` [Compound 122, 1-[2,4-Dihydroxy-6-(2-methoxyethyl)-5-(3-methylphenyl)phenyl]ethanone], the GI50 in test [1], in test [2] and in test [3] was ≤ 50 µM throughout.
For `CCc1c(O)cc(O)c(-c2cccc(OC)c2)c1CCOC` [Compound 118, 6-Ethyl-5-(2-methoxyethyl)-4-(3-methoxyphenyl)benzene-1,3-diol], the GI50 in test [1], in test [2] and in test [3] was ≤ 50 µM in each case.
Consider `COCCc1c(C(C)=O)c(O)cc(O)c1-c1ccccc1` [Compound 92, 1-[2,4-Dihydroxy-6-(2-methoxyethyl)-5-phenylphenyl]ethanone], for which the GI50 in test [1], in test [2] and in test [3] was ≤ 50 µM each time.
As for `CCc1c(O)cc(O)c(-c2cccc(OC)c2)c1CCOCCOC` [Compound 138, 6-Ethyl-5-[2-(2-methoxyethoxy)ethyl]-4-(3-methoxyphenyl)benzene-1,3-diol], the GI50 in test [1], in test [2] and in test [3] was ≤ 50 µM throughout.
Regarding `CCc1c(O)cc(O)c(-c2cccc(C)c2)c1CC1O[C@@H](CO)[C@H](CO)O1` [Compound 229, 5-{[(4S,5S)-4,5-bis(hydroxymethyl)-1,3-dioxolan-2-yl]methyl}-6-ethyl-4-(3-methylphenyl)benzene-1,3-diol], the GI50 in test [2] and in test [3] was ≤ 50 µM each time.
`COC(=O)Cc1c(Br)c(O)cc(O)c1-c1ccc(CCC(C)=O)o1` [Compound 265, Methyl 2-bromo-3,5-dihydroxy-6-[5-(3-oxobutyl)furan-2-yl]phenylacetate]: the GI50 in test [1], in test [2] and in test [3] was ≤ 50 µM throughout.

The record behind these values is patent US7538241B2, “Hsp90 family protein inhibitors” (Kyowa Hakko Kogyo Co., Ltd., priority 2003, dated 2009).
